Values quoted from earlier work in patent US20030215409A1, “Process for the treatment of human keratinous fibers” (L'OREAL, priority 2002, published 2003).

Test system: hair
Conditions: hair densification, current compositions

Compound: Nc1ccnc(N)[n+]1[O-] [aminexil]
- time after which the user begins to have a benefit: 1.5 months
